Results from patent US20230365546A1, “5-SUBSTITUTED INDOLE 3-AMIDE DERIVATIVES, PREPARATION METHOD AND USE THEREOF” (ORIGIANT PHARMACEUTICAL CO., LTD, priority 2020, published 2023).

How the values were obtained:
Experiment in all cases: Kinase Profiler 10 μM panel
[1] = target: TAK1(h) (Homo sapiens (Human), UniProt O43318)
Protocol: (§1) In vitro kinase assays were conducted using Kinase Profiler services provided by Eurofins. The experimental method was as follows: the small molecule compound to be tested (0.001-10 μM), the protein kinase to be tested were incubated with a buffer containing substrate, 10 mM magnesium acetate, and [γ-^33P-ATP], the reaction was started by adding Mg\TPmix, after incubation for a period of time at room temperature, a 3% phosphate solution was added to the buffer to stop the reaction. Subsequently, 10 μL of the reaction mixture was quantitatively pipetted onto P30 filter paper, which was washed three times with 75 mM phosphate solution and then once with methanol. The P30 filter paper was air-dried and scintillation fluid was added for scintillation counting.

[2] = target: GCK(h) (Homo sapiens (Human), UniProt Q12851)
Protocol: as §1

[3] = target: SAPK2a(T106M)(h) (Homo sapiens (Human), UniProt Q16539, T106M)
Protocol: as §1

[4] = target: Met(D1246H)(h) (Homo sapiens (Human), UniProt P08581, D1228H)
Protocol: as §1

[5] = target: HIPK4(h) (Homo sapiens (Human), UniProt Q8NE63)
Protocol: as §1

[6] = target: LIMK2(h) (Homo sapiens (Human), UniProt P53671)
Protocol: as §1

[7] = target: PI3 Kinase (p110b/p85b)(m) (Mus musculus (Mouse), UniProt Q8BTI9)
Chain of PI3 Kinase (p110b/p85b)(m) (Q8BTI9 whole entry): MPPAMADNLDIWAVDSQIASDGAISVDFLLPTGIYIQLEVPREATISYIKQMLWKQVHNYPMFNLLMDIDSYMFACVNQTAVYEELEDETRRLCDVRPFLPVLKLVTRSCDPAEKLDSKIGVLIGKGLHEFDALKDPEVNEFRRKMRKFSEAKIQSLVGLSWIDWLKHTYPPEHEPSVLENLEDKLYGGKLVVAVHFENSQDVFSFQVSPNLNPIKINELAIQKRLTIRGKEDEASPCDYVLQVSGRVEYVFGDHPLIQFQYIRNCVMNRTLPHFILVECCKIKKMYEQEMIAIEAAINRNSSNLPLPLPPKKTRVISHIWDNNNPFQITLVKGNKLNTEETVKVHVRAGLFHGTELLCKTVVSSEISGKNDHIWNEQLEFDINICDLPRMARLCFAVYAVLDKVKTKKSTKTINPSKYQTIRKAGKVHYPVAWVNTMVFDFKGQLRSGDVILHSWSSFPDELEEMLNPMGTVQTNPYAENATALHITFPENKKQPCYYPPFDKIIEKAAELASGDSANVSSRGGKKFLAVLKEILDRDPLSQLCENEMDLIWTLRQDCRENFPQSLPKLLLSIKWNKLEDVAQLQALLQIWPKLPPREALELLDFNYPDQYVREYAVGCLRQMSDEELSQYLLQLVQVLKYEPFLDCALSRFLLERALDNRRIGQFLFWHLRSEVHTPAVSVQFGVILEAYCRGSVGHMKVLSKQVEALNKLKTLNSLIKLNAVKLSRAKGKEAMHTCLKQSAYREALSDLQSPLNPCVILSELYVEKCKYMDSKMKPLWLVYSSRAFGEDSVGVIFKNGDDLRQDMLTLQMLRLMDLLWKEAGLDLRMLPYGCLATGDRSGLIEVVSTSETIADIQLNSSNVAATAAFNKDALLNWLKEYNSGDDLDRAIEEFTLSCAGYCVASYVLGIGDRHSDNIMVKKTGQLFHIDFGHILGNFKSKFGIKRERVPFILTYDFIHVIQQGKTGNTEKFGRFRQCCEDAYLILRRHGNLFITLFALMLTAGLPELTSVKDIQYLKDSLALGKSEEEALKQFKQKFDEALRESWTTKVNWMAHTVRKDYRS
Chain of PI3 Kinase (p110b/p85b)(m) (O08908 whole entry partner): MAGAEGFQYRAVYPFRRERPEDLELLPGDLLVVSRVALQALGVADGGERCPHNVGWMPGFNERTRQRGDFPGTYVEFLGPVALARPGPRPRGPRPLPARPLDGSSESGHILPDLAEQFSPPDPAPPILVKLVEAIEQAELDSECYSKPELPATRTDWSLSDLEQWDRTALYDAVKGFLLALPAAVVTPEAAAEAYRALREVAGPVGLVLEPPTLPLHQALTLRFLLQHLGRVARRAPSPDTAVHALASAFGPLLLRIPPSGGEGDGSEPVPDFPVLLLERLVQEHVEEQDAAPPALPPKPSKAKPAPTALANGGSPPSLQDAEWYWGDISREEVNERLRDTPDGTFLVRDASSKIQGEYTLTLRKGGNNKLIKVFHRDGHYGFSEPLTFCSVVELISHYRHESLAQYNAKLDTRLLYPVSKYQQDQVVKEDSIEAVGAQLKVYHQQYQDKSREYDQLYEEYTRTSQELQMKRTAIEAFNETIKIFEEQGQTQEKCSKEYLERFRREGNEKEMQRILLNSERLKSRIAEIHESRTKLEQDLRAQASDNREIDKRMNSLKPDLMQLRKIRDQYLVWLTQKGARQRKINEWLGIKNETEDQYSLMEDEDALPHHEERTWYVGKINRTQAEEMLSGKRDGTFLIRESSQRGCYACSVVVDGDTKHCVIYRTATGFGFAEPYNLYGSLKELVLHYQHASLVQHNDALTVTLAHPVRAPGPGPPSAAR
Protocol: as §1

[8] = target: Flt3(D835Y)(h) (Homo sapiens (Human), UniProt P36888, D835Y)
Protocol: as §1

[9] = target: MST1(h) (Homo sapiens (Human), UniProt Q13043)
Protocol: as §1

[10] = target: CDK14/cyclinY(h) (Homo sapiens (Human), UniProt O94921)
Protocol: as §1

[11] = target: DRAK1(h) (Homo sapiens (Human), UniProt Q9UEE5)
Protocol: as §1

[12] = target: SGK3(h) (Homo sapiens (Human), UniProt Q96BR1)
Protocol: as §1

[13] = target: TNIK(h) (Homo sapiens (Human), UniProt Q9UKE5)
Chain of TNIK(h) (Q9UKE5 whole entry): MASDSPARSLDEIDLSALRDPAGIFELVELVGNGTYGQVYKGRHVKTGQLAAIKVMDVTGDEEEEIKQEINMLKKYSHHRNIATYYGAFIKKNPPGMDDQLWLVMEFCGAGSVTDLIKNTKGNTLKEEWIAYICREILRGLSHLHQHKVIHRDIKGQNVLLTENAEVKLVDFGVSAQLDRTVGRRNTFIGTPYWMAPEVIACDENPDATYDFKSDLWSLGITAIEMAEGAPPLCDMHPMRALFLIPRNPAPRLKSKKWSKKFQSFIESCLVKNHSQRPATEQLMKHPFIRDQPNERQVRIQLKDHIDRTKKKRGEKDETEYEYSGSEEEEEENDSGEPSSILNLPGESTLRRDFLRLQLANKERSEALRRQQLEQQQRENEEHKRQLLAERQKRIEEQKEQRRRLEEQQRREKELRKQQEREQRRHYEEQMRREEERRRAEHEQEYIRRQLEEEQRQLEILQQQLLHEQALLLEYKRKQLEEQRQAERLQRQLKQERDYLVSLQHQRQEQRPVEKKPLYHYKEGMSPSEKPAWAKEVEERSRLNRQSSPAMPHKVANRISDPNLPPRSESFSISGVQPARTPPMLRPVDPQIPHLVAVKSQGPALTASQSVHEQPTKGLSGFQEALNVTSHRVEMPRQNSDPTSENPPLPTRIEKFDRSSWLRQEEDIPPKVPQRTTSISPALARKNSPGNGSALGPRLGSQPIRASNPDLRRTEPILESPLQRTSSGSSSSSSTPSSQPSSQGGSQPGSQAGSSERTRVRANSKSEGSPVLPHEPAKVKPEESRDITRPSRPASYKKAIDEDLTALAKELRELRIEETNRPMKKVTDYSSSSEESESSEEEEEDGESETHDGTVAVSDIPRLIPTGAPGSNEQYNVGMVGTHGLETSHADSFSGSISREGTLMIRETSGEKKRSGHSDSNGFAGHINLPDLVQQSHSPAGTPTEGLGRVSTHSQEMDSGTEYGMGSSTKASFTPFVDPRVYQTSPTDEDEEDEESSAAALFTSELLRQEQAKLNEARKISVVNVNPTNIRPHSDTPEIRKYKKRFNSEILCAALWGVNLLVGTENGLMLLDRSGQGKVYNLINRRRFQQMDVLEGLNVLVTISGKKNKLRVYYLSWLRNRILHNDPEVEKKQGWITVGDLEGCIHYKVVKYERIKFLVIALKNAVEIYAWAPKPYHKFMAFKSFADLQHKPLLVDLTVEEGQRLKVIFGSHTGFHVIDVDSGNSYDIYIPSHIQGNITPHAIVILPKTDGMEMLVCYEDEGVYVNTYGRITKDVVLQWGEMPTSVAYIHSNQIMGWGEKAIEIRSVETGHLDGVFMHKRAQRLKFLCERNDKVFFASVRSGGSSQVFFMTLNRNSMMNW
Protocol: as §1

[14] = target: NEK1(h) (Homo sapiens (Human), UniProt Q96PY6)
Protocol: as §1

[15] = target: PI3 Kinase (p110a(E545K)/p85a)(h) (Homo sapiens (Human), UniProt P42336, E545K)
Protocol: as §1

[16] = target: MEKK3(h) (Homo sapiens (Human), UniProt Q99759)
Protocol: as §1

[17] = target: PKD3(h) (Homo sapiens (Human), UniProt O94806)
Protocol: as §1

[18] = target: PDGFRβ(h) (Homo sapiens (Human), UniProt P09619)
Protocol: as §1

[19] = target: TGFBR1(h) (Homo sapiens (Human), UniProt P36897)
Protocol: as §1

[20] = target: PI3 Kinase (p110d/p85a)(m) (Mus musculus (Mouse), UniProt O35904)
Protocol: as §1

[21] = target: TGFBR2(h) (Homo sapiens (Human), UniProt P37173)
Chain of TGFBR2(h) (P37173 23-567): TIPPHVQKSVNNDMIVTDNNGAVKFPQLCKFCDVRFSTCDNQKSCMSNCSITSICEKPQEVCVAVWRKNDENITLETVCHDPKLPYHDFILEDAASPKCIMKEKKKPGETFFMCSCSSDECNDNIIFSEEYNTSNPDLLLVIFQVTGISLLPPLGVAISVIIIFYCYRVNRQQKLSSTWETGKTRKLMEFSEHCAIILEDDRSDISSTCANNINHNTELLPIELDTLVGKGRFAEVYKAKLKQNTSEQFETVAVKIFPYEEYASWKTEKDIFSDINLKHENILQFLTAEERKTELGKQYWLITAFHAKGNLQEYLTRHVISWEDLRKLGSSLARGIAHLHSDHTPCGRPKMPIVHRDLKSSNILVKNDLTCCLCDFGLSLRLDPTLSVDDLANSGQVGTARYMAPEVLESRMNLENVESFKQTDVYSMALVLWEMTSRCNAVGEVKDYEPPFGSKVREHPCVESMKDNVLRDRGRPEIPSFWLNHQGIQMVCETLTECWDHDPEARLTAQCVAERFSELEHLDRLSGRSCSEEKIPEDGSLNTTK
Protocol: as §1

[22] = target: BTK(R28H)(h) (Homo sapiens (Human), UniProt Q06187, R28H)
Protocol: as §1

[23] = target: MSSK1(h) (Homo sapiens (Human), UniProt Q9UPE1)
Protocol: as §1

[24] = target: STK32A(h) (Homo sapiens (Human), UniProt Q8WU08)
Protocol: as §1

[25] = target: CaMKIβ(h) (Homo sapiens (Human), UniProt Q6P2M8)
Protocol: as §1

[26] = target: GCN2(h) (Homo sapiens (Human), UniProt Q9P2K8)
Protocol: as §1

[27] = target: TTBK1(h) (Homo sapiens (Human), UniProt Q5TCY1)
Protocol: as §1

[28] = target: EphA8(h) (Homo sapiens (Human), UniProt P29322)
Protocol: as §1

[29] = target: CSK(h) (Homo sapiens (Human), UniProt P41240)
Chain of CSK(h) (P41240 whole entry): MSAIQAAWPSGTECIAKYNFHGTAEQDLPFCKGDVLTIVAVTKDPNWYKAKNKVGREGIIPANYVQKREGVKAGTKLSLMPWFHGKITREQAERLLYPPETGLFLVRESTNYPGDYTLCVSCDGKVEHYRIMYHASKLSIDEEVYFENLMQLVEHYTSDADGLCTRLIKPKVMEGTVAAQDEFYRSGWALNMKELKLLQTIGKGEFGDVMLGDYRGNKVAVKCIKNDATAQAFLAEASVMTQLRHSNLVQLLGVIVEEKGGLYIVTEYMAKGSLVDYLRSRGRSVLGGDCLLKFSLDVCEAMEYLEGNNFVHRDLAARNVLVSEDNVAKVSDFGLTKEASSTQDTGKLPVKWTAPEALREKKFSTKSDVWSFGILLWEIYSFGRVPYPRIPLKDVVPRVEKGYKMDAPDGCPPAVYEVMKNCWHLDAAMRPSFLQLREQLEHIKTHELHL
Protocol: as §1

[30] = target: cKit(h) (Homo sapiens (Human), UniProt P10721)
Protocol: as §1

[31] = target: TSSK2(h) (Homo sapiens (Human), UniProt Q96PF2)
Protocol: as §1

[32] = target: PRAK(h) (Homo sapiens (Human), UniProt Q8IW41)
Protocol: as §1

[33] = target: TLK1(h) (Homo sapiens (Human), UniProt Q9UKI8)
Protocol: as §1

Chain of GCK(h) (Q12851 whole entry): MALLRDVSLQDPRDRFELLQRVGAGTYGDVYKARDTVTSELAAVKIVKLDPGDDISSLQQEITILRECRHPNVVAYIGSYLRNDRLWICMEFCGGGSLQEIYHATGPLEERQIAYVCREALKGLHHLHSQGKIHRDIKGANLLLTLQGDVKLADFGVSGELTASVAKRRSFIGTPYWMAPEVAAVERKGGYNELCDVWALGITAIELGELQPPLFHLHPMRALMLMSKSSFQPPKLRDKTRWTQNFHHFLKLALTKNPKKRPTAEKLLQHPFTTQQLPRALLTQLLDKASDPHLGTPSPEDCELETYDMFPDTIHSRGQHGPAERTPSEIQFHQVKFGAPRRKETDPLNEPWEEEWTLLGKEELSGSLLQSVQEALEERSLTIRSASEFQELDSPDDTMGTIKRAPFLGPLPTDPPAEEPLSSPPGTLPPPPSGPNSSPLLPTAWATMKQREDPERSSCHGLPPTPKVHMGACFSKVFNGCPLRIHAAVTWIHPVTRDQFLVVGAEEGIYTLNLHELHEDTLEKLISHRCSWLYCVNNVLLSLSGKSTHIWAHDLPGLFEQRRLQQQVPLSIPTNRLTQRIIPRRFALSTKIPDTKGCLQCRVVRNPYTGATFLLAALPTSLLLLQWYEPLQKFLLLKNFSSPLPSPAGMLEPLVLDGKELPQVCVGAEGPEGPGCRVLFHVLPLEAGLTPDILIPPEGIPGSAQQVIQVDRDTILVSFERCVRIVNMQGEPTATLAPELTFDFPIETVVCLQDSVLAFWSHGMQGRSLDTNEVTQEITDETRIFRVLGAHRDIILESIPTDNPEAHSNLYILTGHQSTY

## C[C@H](NC(=O)c1c[nH]c2ccc(-c3ccc4nc(NC(=O)C5CC5)sc4c3)cc12)c1cccc(F)c1 [Compound 34, (S)-5-(2-(cyclopropanecarboxamido)benzo[d]thiazol-6-yl)-N-(1-(3-fluorophenyl)ethyl)-1H-indole-3-carboxamide]
[1]
  Inhibition ratio: 45%
[2]
  Inhibition ratio: 62%
[3]
  Inhibition ratio: 63%
[4]
  Inhibition ratio: 95%
[5]
  Inhibition ratio: 95%
[6]
  Inhibition ratio: 44%
[7]
  Inhibition ratio: 45%
[8]
  Inhibition ratio: 82%
[9]
  Inhibition ratio: 5%
[10]
  Inhibition ratio: 47%
[11]
  Inhibition ratio: 38%
[12]
  Inhibition ratio: −1%
[13]
  Inhibition ratio: 99%
[14]
  Inhibition ratio: 18%
[15]
  Inhibition ratio: 32%
[16]
  Inhibition ratio: 2%
[17]
  Inhibition ratio: −5%
[18]
  Inhibition ratio: 9%
[19]
  Inhibition ratio: 7%
[20]
  Inhibition ratio: 31%
[21]
  Inhibition ratio: 25%
[22]
  Inhibition ratio: 1%
[23]
  Inhibition ratio: 24%
[24]
  Inhibition ratio: 16%
[25]
  Inhibition ratio: 11%
[26]
  Inhibition ratio: 14%
[27]
  Inhibition ratio: 4%
[28]
  Inhibition ratio: 85%
[29]
  Inhibition ratio: 13%
[30]
  Inhibition ratio: 4%
[31]
  Inhibition ratio: −6%
[32]
  Inhibition ratio: 27%
[33]
  Inhibition ratio: 19%

## C[C@H](NC(=O)c1cn(C)c2ccc(-c3ccn4nc(NC(=O)C5CC5)nc4c3)cc12)c1cccc(F)c1 [Compound 94, (S)-5-(2-(cyclopropanecarboxamido)-[1,2,4]triazolo[1,5-a]pyridin-7-yl)-N-(1-(3-fluorophenyl)ethyl)-1-methyl-1H-indole-3-carboxamide]
[1]
  Inhibition ratio/%: 9%
[2]
  Inhibition ratio/%: −6%
[3]
  Inhibition ratio/%: −20%
[4]
  Inhibition ratio/%: 34%
[5]
  Inhibition ratio/%: 68%
[6]
  Inhibition ratio/%: 19%
[7]
  Inhibition ratio/%: 44%
[8]
  Inhibition ratio/%: 12%
[9]
  Inhibition ratio/%: 20%
[10]
  Inhibition ratio/%: 55%
[11]
  Inhibition ratio/%: 30%
[12]
  Inhibition ratio/%: 41%
[13]
  Inhibition ratio/%: 59%
[14]
  Inhibition ratio/%: 50%
[15]
  Inhibition ratio/%: 33%
[16]
  Inhibition ratio/%: 14%
[17]
  Inhibition ratio/%: −13%
[18]
  Inhibition ratio/%: 49%
[19]
  Inhibition ratio/%: −3%
[20]
  Inhibition ratio/%: 44%
[21]
  Inhibition ratio/%: −6%
[22]
  Inhibition ratio/%: 77%
[23]
  Inhibition ratio/%: −12%
[24]
  Inhibition ratio/%: 55%
[25]
  Inhibition ratio/%: 31%
[26]
  Inhibition ratio/%: 23%
[27]
  Inhibition ratio/%: 13%
[28]
  Inhibition ratio/%: 4%
[29]
  Inhibition ratio/%: 60%
[30]
  Inhibition ratio/%: 21%
[31]
  Inhibition ratio/%: 52%
[32]
  Inhibition ratio/%: 30%
[33]
  Inhibition ratio/%: 11%
